Read-outs that look alike come from different tables or passages of the source.
What was measured:
[1] = target: T1, PIK3Cd_h (Homo sapiens, UniProt O00329); test: Enzyme binding assay (KINOMEscan); conditions: Eurofins DiscoveRx
T1 construct: purchased Eurofins DiscoveRx Corporation
T1 sequence (O00329 1-1044): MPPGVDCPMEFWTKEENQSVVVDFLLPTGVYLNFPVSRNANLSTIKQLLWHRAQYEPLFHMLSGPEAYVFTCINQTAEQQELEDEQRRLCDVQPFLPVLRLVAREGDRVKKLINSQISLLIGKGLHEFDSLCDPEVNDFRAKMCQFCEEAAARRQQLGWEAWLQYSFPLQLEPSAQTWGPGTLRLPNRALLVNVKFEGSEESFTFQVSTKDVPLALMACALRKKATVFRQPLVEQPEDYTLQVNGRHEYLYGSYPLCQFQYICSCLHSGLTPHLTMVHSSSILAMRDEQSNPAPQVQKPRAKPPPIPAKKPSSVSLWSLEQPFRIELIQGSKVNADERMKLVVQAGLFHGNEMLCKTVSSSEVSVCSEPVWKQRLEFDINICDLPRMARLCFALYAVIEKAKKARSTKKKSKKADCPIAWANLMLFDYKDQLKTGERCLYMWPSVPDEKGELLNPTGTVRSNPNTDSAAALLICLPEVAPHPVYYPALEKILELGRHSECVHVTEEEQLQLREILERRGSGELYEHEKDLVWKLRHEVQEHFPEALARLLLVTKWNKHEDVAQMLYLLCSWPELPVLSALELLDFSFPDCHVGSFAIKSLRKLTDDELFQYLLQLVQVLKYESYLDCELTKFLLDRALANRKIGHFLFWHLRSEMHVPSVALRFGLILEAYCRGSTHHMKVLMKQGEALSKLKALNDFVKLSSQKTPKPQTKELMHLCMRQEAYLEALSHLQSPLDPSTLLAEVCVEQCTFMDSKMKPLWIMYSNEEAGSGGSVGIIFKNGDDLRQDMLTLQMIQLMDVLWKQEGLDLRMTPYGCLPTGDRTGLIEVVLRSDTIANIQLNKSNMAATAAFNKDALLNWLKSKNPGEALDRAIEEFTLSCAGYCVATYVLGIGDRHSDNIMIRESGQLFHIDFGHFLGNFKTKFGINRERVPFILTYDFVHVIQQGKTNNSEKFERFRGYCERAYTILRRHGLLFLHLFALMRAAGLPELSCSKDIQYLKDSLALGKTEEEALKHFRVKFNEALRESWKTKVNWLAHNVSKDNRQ
Procedure: (§1) Kinase enzyme binding affinities of compounds disclosed herein were determined using the KINOMEscan technology performed by Eurofins DiscoveRx Corporation, San Diego, California, USA (www.eurofinsdiscoveryservices.com). Table 2 reports the obtained PIK3β Kd values (nM) of, with the PIK3β Kd being the inhibitor binding constant. Table 3 reports the obtained Kd values (nM), with the Kd being the inhibitor binding constant: […]

[2] = target: T2, PIK3Ca_h (Homo sapiens, UniProt P42336); test: Enzyme binding assay (KINOMEscan); conditions: Eurofins DiscoveRx
T2 construct: purchased Eurofins DiscoveRx Corporation
Procedure: as §1

[3] = target: T3, PIK3Cb_h (Homo sapiens, UniProt P42338); test: Enzyme binding assay (KINOMEscan); conditions: Eurofins DiscoveRx
T3 construct: purchased Eurofins DiscoveRx Corporation
Procedure: as §1

[4] = target: T4, PIK3Cg_h (Homo sapiens, UniProt P48736); test: Enzyme binding assay (KINOMEscan); conditions: Eurofins DiscoveRx
T4 construct: purchased Eurofins DiscoveRx Corporation
Procedure: as §1

[5] = system: phosphorylation of AKT in HCC70 cells; test: Cellular assay: phosphorylation of AKT in HCC70 cells (western blotting); type: cell-based; conditions: Homo sapiens, HCC70, 1 h, HCC70 cells, compound 500 nM, 60 min, inhibition of Akt activity from band intensities
Method in brief: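 HCC70 cells treated with compound at 500 nM (0.1% DMSO control) for 60 min at 37 °C; pAKT Ser473 and Thr308 plus total AKT measured by western blot with fluorescent detection. Inhibition from band intensities, binned as + (20–60%), ++ (60–80%), +++ (80–90%), ++++ (>90%).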

[6] = read-out: Index of AI (HCC70) p-AKT Thr 308
[7] = read-out: Index of AI (HCC70) p-AKT ser 473

T3 sequence (P42338 whole entry): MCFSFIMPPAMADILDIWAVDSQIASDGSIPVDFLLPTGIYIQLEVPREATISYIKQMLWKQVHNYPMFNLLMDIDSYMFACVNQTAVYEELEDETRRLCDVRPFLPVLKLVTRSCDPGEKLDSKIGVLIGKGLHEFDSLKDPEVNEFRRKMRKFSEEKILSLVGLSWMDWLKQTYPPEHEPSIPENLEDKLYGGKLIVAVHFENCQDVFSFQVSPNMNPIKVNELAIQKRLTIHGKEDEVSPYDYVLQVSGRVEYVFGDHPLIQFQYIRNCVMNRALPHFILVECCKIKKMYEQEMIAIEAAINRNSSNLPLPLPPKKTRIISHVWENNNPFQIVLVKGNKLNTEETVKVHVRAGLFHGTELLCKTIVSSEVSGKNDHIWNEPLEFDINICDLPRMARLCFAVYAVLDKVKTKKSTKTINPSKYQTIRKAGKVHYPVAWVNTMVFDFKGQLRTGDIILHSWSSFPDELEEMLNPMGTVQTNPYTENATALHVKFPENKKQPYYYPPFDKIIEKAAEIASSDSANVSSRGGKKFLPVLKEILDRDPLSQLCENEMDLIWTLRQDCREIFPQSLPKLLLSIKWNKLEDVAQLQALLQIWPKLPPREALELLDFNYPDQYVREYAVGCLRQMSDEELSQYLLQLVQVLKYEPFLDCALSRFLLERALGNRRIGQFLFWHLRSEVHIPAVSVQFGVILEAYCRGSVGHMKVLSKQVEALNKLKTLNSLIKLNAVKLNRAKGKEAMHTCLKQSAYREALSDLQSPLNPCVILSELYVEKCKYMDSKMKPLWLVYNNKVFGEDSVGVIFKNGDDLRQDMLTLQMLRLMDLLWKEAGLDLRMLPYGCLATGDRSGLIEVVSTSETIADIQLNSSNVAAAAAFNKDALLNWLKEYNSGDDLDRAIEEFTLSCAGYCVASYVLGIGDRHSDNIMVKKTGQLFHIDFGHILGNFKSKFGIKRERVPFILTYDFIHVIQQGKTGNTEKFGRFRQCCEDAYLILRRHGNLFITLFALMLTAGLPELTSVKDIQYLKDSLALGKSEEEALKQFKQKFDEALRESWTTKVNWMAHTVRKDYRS
T4 sequence (P48736 whole entry): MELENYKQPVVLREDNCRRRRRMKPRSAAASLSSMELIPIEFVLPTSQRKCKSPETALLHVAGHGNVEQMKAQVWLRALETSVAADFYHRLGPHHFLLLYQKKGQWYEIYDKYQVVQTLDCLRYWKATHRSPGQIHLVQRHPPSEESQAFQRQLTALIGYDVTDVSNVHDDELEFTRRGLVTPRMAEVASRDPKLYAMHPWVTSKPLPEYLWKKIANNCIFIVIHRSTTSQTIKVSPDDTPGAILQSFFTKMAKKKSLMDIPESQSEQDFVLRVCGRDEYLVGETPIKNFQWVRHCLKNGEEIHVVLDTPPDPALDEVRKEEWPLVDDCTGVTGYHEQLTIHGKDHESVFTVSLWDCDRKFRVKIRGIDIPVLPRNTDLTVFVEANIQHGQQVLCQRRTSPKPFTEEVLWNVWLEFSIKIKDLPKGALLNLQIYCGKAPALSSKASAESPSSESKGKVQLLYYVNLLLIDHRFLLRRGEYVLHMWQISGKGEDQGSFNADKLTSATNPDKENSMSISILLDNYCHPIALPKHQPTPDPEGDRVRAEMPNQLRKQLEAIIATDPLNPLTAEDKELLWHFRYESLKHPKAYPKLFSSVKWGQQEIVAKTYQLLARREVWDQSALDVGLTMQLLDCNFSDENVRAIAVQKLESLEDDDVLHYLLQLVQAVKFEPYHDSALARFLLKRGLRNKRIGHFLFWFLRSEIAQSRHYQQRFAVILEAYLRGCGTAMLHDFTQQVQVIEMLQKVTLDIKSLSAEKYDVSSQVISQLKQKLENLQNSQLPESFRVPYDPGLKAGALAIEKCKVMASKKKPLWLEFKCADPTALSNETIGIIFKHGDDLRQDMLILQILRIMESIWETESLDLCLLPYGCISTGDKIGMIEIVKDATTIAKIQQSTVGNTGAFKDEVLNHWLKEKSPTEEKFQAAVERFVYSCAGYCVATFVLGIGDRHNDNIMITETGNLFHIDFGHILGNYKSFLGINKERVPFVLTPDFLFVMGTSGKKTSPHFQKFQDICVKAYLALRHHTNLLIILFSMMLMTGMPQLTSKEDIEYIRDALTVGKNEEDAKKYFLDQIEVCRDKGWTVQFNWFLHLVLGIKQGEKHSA
T2 sequence (P42336 whole entry): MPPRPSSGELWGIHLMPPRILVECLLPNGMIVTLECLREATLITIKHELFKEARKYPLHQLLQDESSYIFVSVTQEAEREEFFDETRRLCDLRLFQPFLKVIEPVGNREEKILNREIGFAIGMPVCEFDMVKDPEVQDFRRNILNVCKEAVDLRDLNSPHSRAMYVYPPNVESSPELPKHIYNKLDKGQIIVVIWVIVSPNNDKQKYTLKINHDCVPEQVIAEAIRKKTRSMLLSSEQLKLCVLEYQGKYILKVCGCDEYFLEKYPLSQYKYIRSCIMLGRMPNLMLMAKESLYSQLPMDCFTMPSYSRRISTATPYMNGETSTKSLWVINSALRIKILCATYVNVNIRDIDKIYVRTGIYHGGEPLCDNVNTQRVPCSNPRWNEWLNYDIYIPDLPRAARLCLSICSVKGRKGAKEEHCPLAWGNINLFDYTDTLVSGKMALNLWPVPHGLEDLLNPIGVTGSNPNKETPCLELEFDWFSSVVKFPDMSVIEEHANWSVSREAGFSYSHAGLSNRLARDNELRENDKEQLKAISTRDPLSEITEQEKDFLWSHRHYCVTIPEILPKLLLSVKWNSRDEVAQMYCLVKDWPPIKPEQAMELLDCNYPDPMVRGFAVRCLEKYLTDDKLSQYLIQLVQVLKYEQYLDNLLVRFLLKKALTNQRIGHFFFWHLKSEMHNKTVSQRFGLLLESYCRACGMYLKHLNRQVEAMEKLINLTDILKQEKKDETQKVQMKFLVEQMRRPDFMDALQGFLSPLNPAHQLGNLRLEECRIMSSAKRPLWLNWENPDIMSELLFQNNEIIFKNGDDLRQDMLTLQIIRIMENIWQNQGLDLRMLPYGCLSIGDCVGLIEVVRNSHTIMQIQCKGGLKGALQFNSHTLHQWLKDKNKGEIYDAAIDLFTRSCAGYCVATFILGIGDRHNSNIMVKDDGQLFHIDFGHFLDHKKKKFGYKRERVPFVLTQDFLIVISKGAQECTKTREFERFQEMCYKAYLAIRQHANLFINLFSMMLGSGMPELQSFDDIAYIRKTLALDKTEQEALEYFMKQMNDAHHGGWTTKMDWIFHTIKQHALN

SMILES	Kd [1]	Kd [2]	Kd [3]	Kd [4]	inhibition at 0.5 µM [5, 6]	inhibition at 0.5 µM [5, 7]
CC(Nc1cc(F)cc(F)c1)c1cc(N2CCOCC2=O)cc2c(=O)cc(N3CCOCC3)oc12 (stereo not shown) [Compound 10, 4-(8-(1-((3,5-difluorophenyl)amino)ethyl)-2-morpholino-4-oxo-4H-chromen-6-yl)morpholin-3-one]	8 nM	22 nM	0.2 nM	730 nM	> 90%	> 90%
CNS(=O)(=O)c1cc(C(C)Nc2cc(F)cc(F)c2)c2oc(N3CCOCC3)cc(=O)c2c1 (stereo not shown) [Compound 16, 8-(1-((3,5-difluorophenyl)amino)ethyl)-N-methyl-2-morpholino-4-oxo-4H-chromene-6-sulfonamide]	8.1 nM	36 nM	0.19 nM	110 nM	> 90%	> 90%
CC1Cc2c(F)cccc2N1Cc1cc(C(=O)N(C)C)cc2c(=O)cc(N3CCOCC3)oc12 (stereo not shown) [Compound 33, 8-((4-fluoro-2-methylindolin-1-yl)methyl)-N,N-dimethyl-2-morpholino-4-oxo-4H-chromene-6-carboxamide]	12 nM	17 nM	0.49 nM	320 nM	> 90%	> 90%
CN(C)C(=O)c1cc(CN2CCc3c(F)cc(F)cc32)c2oc(N3CCOCC3)cc(=O)c2c1 [Compound 32, 8-((4,6-difluoroindolin-1-yl)methyl)-N,N-dimethyl-2-morpholino-4-oxo-4H-chromene-6-carboxamide]	19 nM	54 nM	0.18 nM	500 nM	> 90%	> 90%
CC(Nc1cc(F)cc(F)c1)c1cc(NC2=NC(C)(C)CO2)cc2c(=O)cc(N3CCOCC3)oc12 (stereo not shown) [Compound 21, 8-(1-((3,5-difluorophenyl)amino)ethyl)-6-((4,4-dimethyl-4,5-dihydrooxazol-2-yl)amino)-2-morpholino-4H-chromen-4-one]	58 nM	45 nM	0.31 nM	2200 nM	80 to 90%	80 to 90%
CC(Nc1cc(F)cc(F)c1)c1cc(C(=O)N2CCC(N(C)C)C2)cc2c(=O)cc(N3CCOCC3)oc12 (stereo not shown) [Compound 27, 8-(1-((3,5-difluorophenyl)amino)ethyl)-6-(3-(dimethylamino)pyrrolidine-1-carbonyl)-2-morpholino-4H-chromen-4-one]	–	–	0.28 nM	–	> 90%	> 90%
Cc1cc(C(C)N2c3cc(F)cc(F)c3CC2C)c2nc(N3CCOCC3)cc(=O)n2c1 (stereo not shown) [Compound 58, 9-(1-(4,6-difluoro-2-methylindolin-1-yl)ethyl)-7-methyl-2-morpholino-4H-pyrido[1,2-a]pyrimidin-4-one]	–	–	2 nM	–	80 to 90%	80 to 90%
CC(Nc1cc(F)cc(F)c1)c1cc(N)cc2c(=O)cc(N3CCOCC3)oc12 (stereo not shown) [Compound 19, 6-amino-8-(1-((3,5-difluorophenyl)amino)ethyl)-2-morpholino-4H-chromen-4-one]	–	–	0.067 nM	–	> 90%	> 90%
CN1CCN(C(=O)c2cc(CN3CCc4c(F)cc(F)cc43)c3oc(N4CCOCC4)cc(=O)c3c2)CC1 [Compound 44, 8-((4,6-difluoroindolin-1-yl)methyl)-6-(4-methylpiperazine-1-carbonyl)-2-morpholino-4H-chromen-4-one]	–	–	1.3 nM	–	80 to 90%	80 to 90%
C[C@@H](Nc1cc(F)cc(F)c1)c1cc(C(=O)N2CC[C@H](N(C)C)C2)cn2c(=O)cc(N3CCOCC3)nc12 [Compound 48-P4, 9-((R)-1-((3,5-difluorophenyl)amino)ethyl)-7-((S)-3-(dimethylamino)pyrrolidine-1-carbonyl)-2-morpholino-4H-pyrido[1,2-a]pyrimidin-4-one]	18 nM	190 nM	–	1600 nM	–	–
C[C@@H](Nc1cc(F)cc(F)c1)c1cc(C(=O)N2CC[C@@H](N(C)C)C2)cn2c(=O)cc(N3CCOCC3)nc12 [Compound 48-P3, 9-((R)-1-((3,5-difluorophenyl)amino)ethyl)-7-((R)-3-(dimethylamino)pyrrolidine-1-carbonyl)-2-morpholino-4H-pyrido[1,2-a]pyrimidin-4-one]	8.9 nM	92 nM	–	1100 nM	–	–
Cc1cc(C(C)N2CCc3c(F)cc(F)cc32)c2nc(N3CCOCC3)cc(=O)n2c1 (stereo not shown) [Compound 59, 9-(1-(4,6-difluoroindolin-1-yl)ethyl)-7-methyl-2-morpholino-4H-pyrido[1,2-a]pyrimidin-4-one]	–	–	0.61 nM	–	80 to 90%	80 to 90%
CC(Nc1cc(F)cc(F)c1)c1cc(C(=O)N2CCC(N(C)C)C2)cn2c(=O)cc(N3CCOCC3)nc12 (single isomer, unassigned) [Compound 48-P1]	> 10000 nM	> 10000 nM	400 nM	> 10000 nM	–	–
C[C@@H](Nc1cc(F)cc(F)c1)c1cc(C(=O)N2CC[C@@H](N(C)C)C2)cn2c(=O)cc(N3CCOCC3)nc12 [Compound 50, 9-((R)-1-((3,5-difluorophenyl)amino)ethyl)-7-((R)-3-(dimethylamino)pyrrolidine-1-carbonyl)-2-morpholino-4H-pyrido[1,2-a]pyrimidin-4-one]	–	–	0.11 nM	–	> 90%	> 90%
COC(=O)Cc1cc(C(C)Nc2cc(F)cc(F)c2)c2oc(N3CCOCC3)cc(=O)c2c1 (stereo not shown) [Compound 25, methyl 2-(8-(1-((3,5-difluorophenyl)amino)ethyl)-2-morpholino-4-oxo-4H-chromen-6-yl)acetate]	–	–	0.21 nM	–	> 90%	> 90%
CN(C)CCNC(=O)c1cc(CN2CCc3c(F)cc(F)cc32)c2oc(N3CCOCC3)cc(=O)c2c1 [Compound 39, 8-((4,6-difluoroindolin-1-yl)methyl)-N-(2-(dimethylamino)ethyl)-2-morpholino-4-oxo-4H-chromene-6-carboxamide]	–	–	0.072 nM	–	> 90%	> 90%
CC(Nc1cc(F)cc(F)c1)c1cc(C(=O)N2CC(N(C)C)C2)cn2c(=O)cc(N3CCOCC3)nc12 (stereo not shown) [Compound 49, 9-(1-((3,5-difluorophenyl)amino)ethyl)-7-(3-(dimethylamino)azetidine-1-carbonyl)-2-morpholino-4H-pyrido[1,2-a]pyrimidin-4-one]	–	–	0.67 nM	–	60 to 80%	60 to 80%
CC(Nc1cc(F)cc(F)c1)c1cc(O)cc2c(=O)cc(N3CCOCC3)oc12 (stereo not shown) [Compound 15, 8-(1-((3,5-difluorophenyl)amino)ethyl)-6-hydroxy-2-morpholino-4H-chromen-4-one]	–	–	0.059 nM	–	> 90%	> 90%
CC(Nc1cc(F)cc(F)c1)c1cc(C(=O)N2CC[C@@H](N(C)C)C2)cc2c(=O)cc(N3CCOCC3)oc12 (stereo partly drawn) [Compound 29, 8-(1-((3,5-difluorophenyl)amino)ethyl)-6-((R)-3-(dimethylamino)pyrrolidine-1-carbonyl)-2-morpholino-4H-chromen-4-one]	–	–	0.17 nM	–	> 90%	> 90%

— US20240166617A1, “PHOSPHOINOSITIDE 3 KINASE BETA INHIBITORS AND COMPOSITIONS AND METHODS THEREOF” (Geode Therapeutics Inc., priority 2021, published 2024)
